Results as given in US20260242416A1, “ANTIMICROBIAL PEPTIDES” (priority 2023, published 2026).
Where a SMILES comes first, the peptide text is derived from it.

How the values were obtained:
[1] = system: E. coli ATCC 25922, Salmonella Enteritidis, S. aureus ATCC 29213; experiment: Broth microdilution, panel result (at least one / all strains), Example 2; assay type: cell-based; parameters: key to inhibitory activity (asterisk): *Indicates inhibitory activity; conditions: Table 14; against at least one of E. coli ATCC 25922, Salmonella Enteritidis, S. aureus ATCC 29213
Experimental: The antimicrobial activity of the putative AMPs was determined by a broth microdilution assay as described by the Clinical and Laboratory Standards Institute, with the published adaptations for testing of cationic peptides. Escherichia coli 25922 and Staphylococcus aureus 29213 isolates were purchased from the American Type Culture Collection (ATCC; Manassas, VA, USA). A human clinical isolate of Salmonella enterica serovar Enteritidis was provided by the BC Centre for Disease Control. Bacteria from stocks stored at −80° C. were streaked onto nonselective Columbia blood agar with 5% sheep blood (Oxoid) and incubated overnight at 37° C. Next, 2-4 colonies were streaked onto a new agar plate to ensure uniform health of colonies used in the broth microdilution assay. Isolated colonies were suspended in MHB and the optical density was measured with a spectrophotometer to create an initial inoculum concentration of approximately 1×10^8 cfu/mL. The inoculum was diluted 1:250 to a final concentration of 2-8×10^5 cfu/mL, which was confirmed by performing a Total Viability Count (TVC). The TVC consisted of plating a 1:1000 dilution of the final inoculum on nonselective media and was also used to confirm the health and purity of the inoculum in each trial.
Lyophilized 80 μg peptide aliquots synthesized by GenScript (Piscataway, NJ, USA) were resuspended to 1.28 mg/mL with UltraPure water (Thermo Fisher Scientific, Waltham, MA, USA) and serially diluted in polypropylene 96-well microtiter plates (Greiner Bio-One #650261, Kremsmunster, Austria) from 128 down to 0.5 μg/mL. Two columns per plate were reserved for growth and sterility controls. Inoculum was added to the wells containing the peptide and the growth control. Plates were incubated for 20-24 h at 37° C. The minimum inhibitory concentration (MIC) was determined as the lowest peptide concentration where there was no visible bacterial growth.

E. coli ATCC 25922 = assay type: cell-based, Escherichia coli; conditions: ATCC 25922
Outline: (§1)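 MIC taken as lowest peptide level showing no visible growth after 20-24 h at 37° C. Twofold series 128-0.5 μg/mL in Mueller-Hinton broth, polypropylene plates, final inoculum 2-8×10^5 cfu/mL, per CLSI with cationic-peptide adaptations.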

[2] = system: Salmonella enterica serovar Enteritidis (human clinical isolate); assay type: cell-based; conditions: serovar Enteritidis (human clinical isolate)
Outline: as §1

S. aureus ATCC 29213 = assay type: cell-based, Staphylococcus aureus; conditions: ATCC 29213
Outline: as §1

Compound	inhibitory activity (asterisk) [1]	MIC (ug/mL) E. coli (E. coli ATCC 25922)	MIC (ug/mL) S. Enteritidis [2]	MIC (ug/mL) S. aureus (S. aureus ATCC 29213)
CC(C)C[C@H](NC(=O)CN)C(=O)N[C@@H](CC(C)C)C(=O)NCC(=O)N[C@@H](CCCCN)C(=O)N[C@H](C(=O)N[C@@H](CC(C)C)C(=O)NCC(=O)N[C@H](C(=O)NCC(=O)N[C@@H](CCCCN)C(=O)N[C@@H](CCCCN)C(=O)N[C@H](C(=O)N[C@@H](CC(C)C)C(=O)N[C@@H](CS)C(=O)NCC(=O)N[C@H](C(=O)N[C@H](C(=O)NCC(=O)N[C@@H](CCCNC(=N)N)C(=O)N[C@@H](CCC(=O)O)C(=O)N[C@@H](CCCNC(=N)N)C(=O)N[C@@H](CS)C(=O)N[C@@H](CCC(N)=O)C(=O)O)[C@@H](C)O)C(C)C)C(C)C)C(C)C)C(C)C [PeNi5] (H-GLLGKVLGVGKKVLCGVTGRERCQ-OH; N-terminus and C-terminus assumed)	359.* GLLGKVLGVGKKVLCGVTGRERCQ			
CC(C)C[C@H](NC(=O)[C@@H](NC(=O)[C@H](Cc1ccccc1)NC(=O)[C@H](C)NC(=O)CN)C(C)C)C(=O)N[C@@H](Cc1c[nH]c2ccccc12)C(=O)NCC(=O)N1CCC[C@H]1C(=O)N[C@H](C(=O)N1CCC[C@H]1C(=O)N[C@@H](CCCNC(=N)N)C(=O)N1CCC[C@H]1C(=O)N[C@@H](CCCNC(=N)N)C(=O)N[C@@H](CCCNC(=N)N)C(=O)N[C@@H](CCCNC(=N)N)C(=O)O)[C@@H](C)O [DiLo1, GAFVLWGPTPRPRRR] (H-GAFVLWGPTPRPRRR-OH; N-terminus and C-terminus assumed)	864.* GAFVLWGPTPRPRRR			
CC[C@H](C)[C@H](NC(=O)CN)C(=O)N[C@@H](CC(C)C)C(=O)N[C@@H](CCCNC(=N)N)C(=O)N[C@@H](CO)C(=O)N[C@@H](CC(C)C)C(=O)NCC(=O)N[C@@H](Cc1c[nH]c2ccccc12)C(=O)N[C@H](C(=O)N[C@@H](CCC(N)=O)C(=O)N[C@@H](CCSC)C(=O)N1CCC[C@H]1C(=O)N[C@@H](CCCNC(=N)N)C(=O)N[C@@H](CO)C(=O)N[C@@H](CCCNC(=N)N)C(=O)N[C@@H](CCCNC(=N)N)C(=O)N[C@@H](CCCNC(=N)N)C(=O)N[C@@H](Cc1c[nH]cn1)C(=O)N[C@@H](CCCNC(=N)N)C(=O)O)[C@@H](C)CC [AnFI2, GILRSLGWIQMPRSRRRHR] (H-GILRSLGWIQMPRSRRRHR-OH; N-terminus and C-terminus assumed)	721.* GILRSLGWIQMPRSRRRHR			
CC[C@H](C)[C@H](NC(=O)[C@@H](N)C(C)C)C(=O)N1CCC[C@H]1C(=O)N[C@@H](Cc1ccccc1)C(=O)N[C@H](C(=O)N[C@@H](C)C(=O)N[C@@H](CO)C(=O)N[C@H](C(=O)N[C@@H](C)C(=O)N[C@@H](C)C(=O)N[C@@H](CCC(=O)O)C(=O)N[C@@H](CCSC)C(=O)N[C@@H](CCSC)C(=O)N[C@@H](Cc1c[nH]cn1)C(=O)N[C@@H](Cc1c[nH]cn1)C(=O)N[C@H](C(=O)N[C@@H](Cc1ccc(O)cc1)C(=O)N[C@@H](CS)C(=O)N[C@@H](C)C(=O)N[C@@H](C)C(=O)N[C@@H](CO)C(=O)N[C@@H](CCCCN)C(=O)N[C@@H](CCCNC(=N)N)C(=O)N[C@@H](CS)C(=O)N[C@@H](CCCCN)C(=O)N[C@@H](CC(N)=O)C(=O)O)C(C)C)C(C)C)C(C)C [PeNi7] (H-VIPFVASVAAEMMHHVYCAASKRCKN-OH; N-terminus and C-terminus assumed)	1088.* VIPFVASVAAEMMHHVYCAASKRCKN			
CC[C@H](C)[C@H](NC(=O)[C@H](CCCCN)NC(=O)[C@@H](N)CCCNC(=N)N)C(=O)N[C@H](C(=O)N[C@@H](C)C(=O)N[C@H](C(=O)N[C@@H](CO)C(=O)N[C@H](C(=O)N[C@@H](Cc1c[nH]cn1)C(=O)N[C@@H](CCCCN)C(=O)N[C@@H](CC(C)C)C(=O)N[C@@H](CS)C(=O)N[C@@H](CCCNC(=N)N)C(=O)N[C@H](C(=O)N[C@@H](CCCCN)C(=O)N[C@@H](CCCNC(=N)N)C(=O)O)C(C)C)C(C)C)C(C)C)[C@@H](C)CC [BoUs1, RKIIAVSVHKLCRVKR] (H-RKIIAVSVHKLCRVKR-OH; N-terminus and C-terminus assumed)	815.* RKIIAVSVHKLCRVKR			
CC[C@H](C)[C@H](NC(=O)[C@H](CO)NC(=O)[C@@H]1CCCN1C(=O)[C@H](CC(C)C)NC(=O)[C@@H](NC(=O)[C@H](CCCCN)NC(=O)[C@H](C)NC(=O)[C@H](C)NC(=O)[C@H](CC(C)C)NC(=O)CNC(=O)[C@H](C)NC(=O)[C@@H](NC(=O)[C@@H](NC(=O)[C@@H]1CCCN1C(=O)[C@H](CC(C)C)NC(=O)[C@H](Cc1ccccc1)NC(=O)[C@H](CCCNC(=N)N)NC(=O)[C@H](CCC(N)=O)NC(=O)[C@H](CCC(=O)O)NC(=O)[C@@H](N)CCC(=O)O)C(C)C)C(C)C)C(C)C)C(=O)N[C@H](C(=O)N[C@@H](CS)C(=O)N[C@@H](C)C(=O)N[C@H](C(=O)N[C@H](C(=O)N[C@@H](CCCCN)C(=O)N[C@@H](CCCCN)C(=O)N[C@@H](CS)C(=O)O)[C@@H](C)O)C(C)C)[C@@H](C)CC [RaSy2] (H-EEQRFLPVVAGLAAKVLPSIICAVTKKC-OH; N-terminus and C-terminus assumed)	673.* EEQRFLPVVAGLAAKVLPSIICAVTKKC			
CC(C)[C@H](NC(=O)[C@H](CCCCN)NC(=O)CNC(=O)[C@H](C)NC(=O)CNC(=O)[C@H](C)NC(=O)[C@H](C)N)C(=O)N[C@H](C(=O)N[C@@H](CCCCN)C(=O)N[C@@H](CO)C(=O)N[C@@H](C)C(=O)N[C@@H](CCC(N)=O)C(=O)N[C@@H](CCCCN)C(=O)N[C@@H](C)C(=O)N[C@@H](CCC(N)=O)C(=O)N[C@@H](CCCCN)C(=O)N[C@@H](C)C(=O)N[C@@H](CCCCN)C(=O)O)[C@@H](C)O [BoAr1, AAGAGKVTKSAQKAQKAK] (H-AAGAGKVTKSAQKAQKAK-OH; N-terminus and C-terminus assumed)		>128/>128/>128 ug/mL	>128/>128/>128 ug/mL	>128/>128/>128 ug/mL
CC[C@H](C)[C@H](NC(=O)[C@H](Cc1c[nH]cn1)NC(=O)[C@H](Cc1c[nH]cn1)NC(=O)[C@H](Cc1ccc(O)cc1)NC(=O)[C@@H](N)CCCCN)C(=O)N[C@@H](CCCCN)C(=O)N[C@@H](CC(C)C)C(=O)N[C@@H](CCCNC(=N)N)C(=O)N[C@@H](Cc1c[nH]cn1)C(=O)NCC(=O)N[C@@H](CCCNC(=N)N)C(=O)N[C@@H](Cc1c[nH]cn1)C(=O)N[C@@H](CCCNC(=N)N)C(=O)N[C@@H](CCCNC(=N)N)C(=O)N[C@H](C(=O)N[C@H](C(=O)N[C@@H](Cc1c[nH]cn1)C(=O)O)[C@@H](C)CC)[C@@H](C)O [PaVa2, KYHHIKLRHGRHRRTIH] (H-KYHHIKLRHGRHRRTIH-OH; N-terminus and C-terminus assumed)		>128/>128/>128 ug/mL	>128/>128/>128 ug/mL	>128/>128/>128 ug/mL
CC[C@H](C)[C@H](NC(=O)[C@H](CO)NC(=O)[C@@H](NC(=O)[C@@H](NC(=O)[C@@H](N)C(C)C)[C@@H](C)O)[C@@H](C)CC)C(=O)N[C@@H](C)C(=O)N[C@@H](CCCNC(=N)N)C(=O)N[C@@H](CCCNC(=N)N)C(=O)N[C@H](C(=O)N[C@@H](CO)C(=O)N[C@@H](CO)C(=O)N[C@@H](Cc1c[nH]cn1)C(=O)N[C@@H](CCCCN)C(=O)N[C@@H](CCCNC(=N)N)C(=O)NCC(=O)O)C(C)C [BoAr5, VTISIARRVSSHKRG] (H-VTISIARRVSSHKRG-OH; N-terminus and C-terminus assumed)		>128/>128/>128 ug/mL	>128/>128/>128 ug/mL	>128/>128/>128 ug/mL
CC(C)C[C@H](NC(=O)CNC(=O)[C@H](Cc1ccccc1)NC(=O)[C@@H]1CCCN1C(=O)[C@@H](N)C(C)C)C(=O)N[C@@H](CCCCN)C(=O)N1CCC[C@H]1C(=O)N[C@@H](CCCNC(=N)N)C(=O)O [TeRu1, VPFGLKPR] (H-VPFGLKPR-OH; N-terminus and C-terminus assumed)		>128/>128/>128 ug/mL	>128/>128/>128 ug/mL	>128/>128/>128 ug/mL
N=C(N)NCCC[C@H](NC(=O)[C@H](CCCNC(=N)N)NC(=O)CNC(=O)[C@H](Cc1ccccc1)NC(=O)[C@@H]1CCCN1C(=O)[C@H](Cc1ccccc1)NC(=O)[C@@H]1CCCN1C(=O)[C@@H](N)Cc1ccccc1)C(=O)O [RaSi2, FPFPFGRR] (H-FPFPFGRR-OH; N-terminus and C-terminus assumed)		>128/>128/>128 ug/mL	>128/>128/>128 ug/mL	>128/>128/>128 ug/mL
CSCC[C@H](NC(=O)[C@@H](N)C(C)C)C(=O)N[C@@H](CC(C)C)C(=O)N1CCC[C@H]1C(=O)N[C@@H](CCCCN)C(=O)N[C@@H](Cc1ccccc1)C(=O)N[C@@H](CCCCN)C(=O)N[C@@H](CCCNC(=N)N)C(=O)O [MiDe1, VMLPKFKR] (H-VMLPKFKR-OH; N-terminus and C-terminus assumed)		>128/>128/>128 ug/mL	>128/>128/>128 ug/mL	>128/>128/>128 ug/mL
